# Measured values taken from US5569655A, “Substituted heterocyclylisoquinolinium salts and compositions and method of use thereof” (Sterling Winthrop Inc., priority 1994, dated 1996).
# Key:
# [1] = target: PCP recognition sites (PCP receptor); assay: [3H]TCP radioreceptor assay (binding to PCP recognition sites); set-up: species or system rat (male Sprague-Dawley; settings: rat whole brain membranes, approx. 1 nM [3H]TCP; mean of at least two determinations
# Experimental: [^3 H]TCP Radioreceptor Assay
# [^3 H]TCP binding to PCP recognition sites was performed as described by Vignon et al. Brain Research 1983, 280, 194-197. Male Sprague-Dawley rats were sacrificed by decapitation, and whole brains were homogenized in 10 volumes (wt/vol) of cold Tris-HCl buffer (50 mM, pH 7.7) using a Brinkmann Polytron (setting 6, 30 sec). The homogenate was centrifuged at 40,000×g for 10 min at 4° C. The supernatant was decanted, and the homogenization and centrifugation steps were repeated twice as described above. Following this, the pellet was resuspended in Tris-HCl (5 mM, pH 7.7) at a tissue concentration of 0.5-0.75 g/ml, and one ml aliquots were frozen at -70° C. until use. The binding characteristics for PCP recognition sites were not altered by the freezing of membrane suspensions.
# On the day of the assay, membrane aliquots were thawed, resuspended in fresh 5 mM Tris-HCl buffer at a tissue concentration of 1 mg/ml, and stored on ice until use. Each assay tube contained 100 μl of [^3 H]TCP at a final concentration of approximately 1 nM, 100 μl of various concentrations of the compounds of interest, 500 μl of the tissue suspension and 300 μl of buffer to a final assay volume of 1 ml and a final protein concentration of 0.5 mg/tube. Non-specific binding was defined by addition of a final concentration of 100 μM PCP to blank tubes. All tubes were incubated at room temperature for 25 min before termination of the reaction by rapid filtration over Whatman GF/B glass fiber filters that had been presoaked in a solution of 0.5% polyethylenimine for at least 1 hr prior to use. Filters were washed with three 4 ml volumes of cold Tris buffer. Following addition of scintillation cocktail, the amount of bound radioactivity was determined by liquid scintillation spectrometry using a Beckman LS 5000TA liquid scintillation counter with an efficiency for tritium of approximately 55%. Inhibition constants (Ki values) were calculated using the EBDA/LIGAND program (McPherson, J. Pharmacol. Meth. 1985, 14, 213-228), purchased from Elsevier/Biosoft, Inc. The results are reported as Ki values (in nM) which are expressed as the mean of at least two separate determinations, or as a percent (%) inhibition of binding at 10 μM.
# (§1) Table 4 summarizes the results obtained from the testing of representative compounds of the invention in the [^3 H]TCP radioreceptor assay as well as in the antagonism of NMDA-induced neurotoxicity in cultured neurons.
# [2] = tested on: NMDA-induced neurotoxicity in cultured cortical neurons; assay: Antagonism of NMDA-induced neurotoxicity in cultured neurons; format: cell-based, mouse (Swiss-Webster); settings: Mus musculus, Cortical neurone, 500 μM NMDA for 30 minutes; LDH activity after 24 hours
# Experimental: Antagonism of NMDA-induced Neurotoxicity in Cultured Neurons
# Preparation of cultured cortical neurons
# Pregnant, Swiss-Webster mice were obtained from Taconic Farms (Germantown, N.Y.) and sacrificed 16 days post conception. Fetuses were removed and placed in a sterile dish containing Hank's balanced salt solution (HBSS), pH 7.4. Brain cortices were dissected, meninges were removed, the tissue was minced and placed into a solution of HBSS containing 0.25% (w/v) trypsin at 37° C. for 15 minutes. Tissue was then triturated with a sterile pasteur pipet, diluted with minimal essential media (Gibco 330-1430), pH 7.4, supplemented with 10% horse serum, 10% fetal calf serum, 2 mM 1-glutamine, 21 mM d-glucose, 2.2 g/L sodium bicarbonate, 1000 U/ml penicillin, and 1,000 μg/ml streptomycin. Cells were plated onto Falcon primaria 96 well plates at a final density of 50,000 cells/well and incubated at 37° C. in the presence of 5% (v/v) carbon dioxide. After 5 days, plating media was replaced with maintenance media containing minimal essential media (Gibco 330-1430), pH 7.4, supplemented with 10% horse serum, 10% 1-glutamine, 21 mM D-glucose, 2.2 g/l sodium bicarbonate,1,000 U/ml penicillin, 1,000 μg/ml streptomycin, and 10 μM cytosine arabinoside. On days 7 and 10, media was replaced with maintenance media as above lacking the cytosine arabinoside. Experiments were conducted on day 13.
# Neuroprotection Assessment
# Day 13 cultured cortical neurons were washed twice with minimal essential media, pH 7.4 and then exposed for 30 minutes to 500 μM N-methyl-D-aspartic acid (NMDA) with or without varying concentrations of test agents. […] MK-801 and test agents were prepared in minimal essential media supplemented with 21 mM d-glucose and 2.2 g/L sodium bicarbonate (MEM). After 30 minutes, media was replaced with MEM alone. Exposure of neurons to test agents was limited to the NMDA treatment period. Twenty-four hours after removal of NMDA, an aliquot of media from each well was removed for assessment of cell injury by determining lactate dehydrogenase (LDH) activity by the method of Wroblewski and LaDue Proc. Soc. Exp. Biol. Med. 1955, 90, 210-213. The results are expressed as an IC50 (in nM) value (concentration causing 50% inhibition) for the antagonism of NMDA-induced neurotoxicity.
# as §1
SMILES,Ki [1] [nM],IC50 [2] [nM]
"Cn1cc[n+]2c1C1c3ccccc3C2CC1(c1ccoc1)c1ccoc1 (stereo not drawn) [13(b), 11,11-di(3-furyl)-5,10-ethano-5,10-dihydro-1-methylimidazo[1,2-b]isoquinolin-4-ium chloride]",2.9,257
"Cc1csc2[n+]1C1CC(c3ccoc3)(c3ccoc3)C2c2ccccc21 (stereo not drawn) [15(F), 11,11-di(3-furyl)-5,10-ethano-5,10-dihydro-3-methylthiazolo[3,2-b]isoquinolinium chloride]",20,300
"Cc1c[n+]2c(s1)C1c3ccccc3C2CC1(c1ccoc1)c1ccoc1 (stereo not drawn) [16(E), 11,11-di(3-furyl)-5,10-ethano-5,10-dihydro-2-methylthiazolo[3,2-b]isoquinolinium chloride]",11,270
"c1ccc2c(c1)C1CC(c3ccn[nH]3)(c3ccn[nH]3)C2c2scc[n+]21 (stereo not drawn) [18(h), 11,11-di-(pyrazol-5-yl)-5,10-ethano-5,10-dihydrothiazolo[3,2-b]isoquinolinium chloride]",21,480
"Oc1cccc2c1C1c3scc[n+]3C2CC1(c1ccoc1)c1ccoc1 (stereo not drawn) [206(f), 11,11-di(3-furyl)-9-hydroxy-5,10-ethano-5,10-dihydrothiazolo[3,2-b]isoquinolinium chloride]",1.87,20.9
"CCOC1(OCC)C2c3ccccc3C([n+]3ccsc32)C1(C)C (stereo not drawn) [Example 1i, 11,11-diethoxy-12,12-dimethyl-5,10-ethano-5,10-dihydrothiazolo[3,2-b]isoquinolinium chloride 3/5 hydrate]",6.1,173
